In patent publication US20130115293A1, “Therapeutic Polymeric Nanoparticles Comprising Corticosteroids and Methods of Making and Using Same” (priority 2009, published 2013):
“And” between values parts separate entries of the source, which are not always exact repeats. Equal values may be shown once. Read-outs that look alike come from different tables or passages of the source.

Legend:
[1] = Rat study: pharmacokinetics, plasma levels by LCMS; assay type: in vivo, Rats (male Sprague Dawley); details: single intravenous dose 0.5 mg/kg; for AUC(0-inf) / clearance / Cmax / Vd / half-life: male, Sprague Dawley, iv, 0.5 mg/kg
Description: Rats (male Sprague Dawley, approximately 300 g with jugular cannulae) were given a single intravenous dose of 0.5 mg/kg of budesonide or passively targeted nanoparticles (PTNP) encapsulating budesonide (prepared as in Example 7) at time=0. At various times after dosing, blood samples were collected from the jugular cannulae into tubes containing lithium heparin, and plasma was prepared. Plasma levels were determined by extraction of the budesonide from plasma followed by LCMS analysis.

indomethacin-induced IBD = assay: Rat model of inflammatory bowel disease (indomethacin induced); assay type: in vivo, rats; details: for intestinal score decrease towards normal: days -1 to 3, scored day 4; for small intestine weight decrease toward normal: days -1 to 3, weighed day 4
Description: Budesonide and Budesonide PTNP were compared in a model of inflammatory bowel disease (IBD) as an efficacy model of inflammation. In this model, female rats were given two subcutaneous doses of 8 mg/kg indomethacin at 24 hour intervals to induce lesions resembling those occurring in Crohn's disease in the small intestine. Intravenous daily treatment with vehicle, budesonide (0.02, 0.2 or 2 mg/kg) or budesonide PTNP (0.02, 0.2 or 2 mg/kg) or oral daily treatment with Dexamethasone (0.1 mg/kg) was initiated one day before indomethacin treatment (day −1) and continued for 5 total days (days −1 to 3). Animals were euthanized on day 4, and a 10 cm area at risk in the small intestine was scored for gross pathology and weighed.
Using a disease scoring system in which a score of 0 is normal, and a score of 5 indicates death due to IBD symptoms, normal rats have an average score of 0, and an average intestinal weight of 0.488 g.

[2] = Solubility of drug in beta cyclodextrin (BCD) release medium; assay type: physicochemical
Description: For in vitro release studies using the procedure of Example 3, beta cyclodextrin (BCD) was evaluated as a solubilizer for maintaining sink conditions during the release of ciclesonide into the release medium.

CCCC1O[C@@H]2C[C@H]3[C@@H]4CCC5=CC(=O)C=C[C@]5(C)[C@H]4[C@@H](O)C[C@]3(C)[C@]2(C(=O)CO)O1 (some centres unmarked) [Budesonide, budesonide]
AUC(0-inf) ([1]; average of 6 rats, read-out: AUCinf (hr * ng/mL), Avg): 148 ng·h/mL
clearance ([1]; average of 6 rats, read-out: Cl (mL/hr/kg), Avg (converted)): 3480 mL/h/kg
Cmax ([1]; average of 6 rats, read-out: Cmax (ng/mL), Avg): 286 ng/mL
Vd ([1]; average of 6 rats, read-out: Vz (mL/kg), Avg): 3740 mL/kg
half-life ([1]; average of 6 rats, read-out: t1/2 (hr), Avg (converted)): 0.75 h
AUC(0-inf) ([1]; individual animals, read-out: AUCinf (hr * ng/mL), individual rats): 159 ng·h/mL
clearance ([1]; individual animals, read-out: Cl (mL/hr/kg), individual rats (converted)): 3140 mL/h/kg
Cmax ([1]; individual animals, read-out: Cmax (ng/mL), individual rats): 324 ng/mL
Vd ([1]; individual animals, read-out: Vz (mL/kg), individual rats): 3310 mL/kg
half-life ([1]; individual animals, read-out: t1/2 (hr), individual rats (converted)): 0.73 h
Cl (mL/hr/kg), individual rats ([1]; individual animals): 3966 mL/h/kg and 4611 mL/h/kg and 3104 mL/h/kg and 3151 mL/h/kg and 2892 mL/h/kg
Cmax (ng/mL), individual rats ([1]; individual animals): 241 ng/mL and 226 ng/mL and 337 ng/mL and 306 ng/mL and 279 ng/mL
Vz (mL/kg), individual rats ([1]; individual animals): 4291 mL/kg and 4937 mL/kg and 3104 mL/kg and 3191 mL/kg and 3627 mL/kg
intestinal score decrease towards normal (indomethacin-induced IBD; 0.02 mg/kg intravenous daily): 52%
small intestine weight decrease toward normal (indomethacin-induced IBD; 0.02 mg/kg intravenous daily): 52%
intestinal score decrease towards normal (indomethacin-induced IBD; 0.2 mg/kg intravenous daily): 53%
small intestine weight decrease toward normal (indomethacin-induced IBD; 0.2 mg/kg intravenous daily): 53%
intestinal score decrease towards normal (indomethacin-induced IBD; 2 mg/kg intravenous daily): 59%
small intestine weight decrease toward normal (indomethacin-induced IBD; 2 mg/kg intravenous daily): 59%

C[C@@H]1C[C@H]2[C@@H]3CCC4=CC(=O)C=C[C@]4(C)[C@@]3(Cl)[C@@H](O)C[C@]2(C)[C@@]1(OC(=O)c1ccco1)C(=O)CCl [MOM, Mometasone Furoate]
[MOM] ([2]; 10% wt BCD in PBS): 93.5 µg/mL
[MOM] ([2]; […] wt BCD in PBS): 33.42 µg/mL

CC(C)C(=O)OCC(=O)[C@@]12O[C@H](C3CCCCC3)O[C@@H]1C[C@H]1[C@@H]3CCC4=CC(=O)C=C[C@]4(C)[C@H]3[C@@H](O)C[C@@]12C [ciclesonide]
[ciclesonide] ([2]; 10% wt BCD): 133 µg/mL
[ciclesonide] ([2]; […] wt BCD): 17.58 µg/mL
